{"source": "patent US20020192834A1", "about": "“Analysis of caffeine” (priority 2001, published 2002)", "origin": "cited, not measured here", "conditions": "after consuming caffeine in coffee; background statement"}
{"smiles": "Cn1c(=O)c2c(ncn2C)n(C)c1=O", "note": "[caffeine, trimethylxanthine]", "values": [{"measurement": "half-life of caffeine", "result": "about 6 hours"}]}
